{"source": "paper PMC6350621", "about": "“Small-molecules that covalently react with a human prolyl hydroxylase – towards activity modulation and substrate capture” (Chemical Communications (Cambridge, England), 2018)", "key": {"PHD2_181–426": {"biological_target": "T1, PHD2_181–426 (Homo sapiens, UniProt Q9GZT9)", "T1 construct": "PHD2_181–426 (hereafter PHD2); His6 (N, cleaved yes); made in house; host or cells: bacterial culture (2x TY, kanamycin, IPTG)", "T1 sequence (Q9GZT9 181-426)": "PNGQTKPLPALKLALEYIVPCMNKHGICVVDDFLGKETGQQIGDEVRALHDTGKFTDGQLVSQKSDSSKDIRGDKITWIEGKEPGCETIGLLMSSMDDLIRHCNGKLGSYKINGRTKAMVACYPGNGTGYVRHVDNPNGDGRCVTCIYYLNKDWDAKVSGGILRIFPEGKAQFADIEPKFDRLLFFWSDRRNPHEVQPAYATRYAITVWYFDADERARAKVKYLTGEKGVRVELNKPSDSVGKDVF", "test": "Non-denaturing ESI-MS of covalent adduct formation with PHD2", "assay_type": "binding", "conditions": "equimolar PHD2/Fe(II), 37 °C", "description": "The interaction of the ligands with PHD2_181–426 (hereafter PHD2) was examined by non-denaturing ESI-MS, using cone voltage variation to distinguish covalent and non-covalent complexes (non-covalent interactions are typically preserved at cone voltages of 50–80 V, and dissociated at 200 V).[16]–[18] Aldehydes 1 and 2 were incubated with equimolar PHD2 and Fe(II) (37 °C; 5 or 20 min). […] Without Fe(II), neither covalent nor non-covalent adducts were observed, implying covalent conjugation involves active site Fe(II) binding, with subsequent condensation.\nFig. S2 A) Schematic representation of the assigned species formed on addition of 1 or 2 to PHD2. The results support initial non-covalent binding of the inhibitors to PHD2.Fe(II) to form B. Subsequently, condensation of a lysine residue with the aldehyde forms the covalent adduct C. (B) and (C): Non-denaturing ESI-MS data support the covalent crosslinking of 1/2 with PHD2. Conditions: PHD2 (20 µM) was incubated (37 °C, 5 or 20 min) with equimolar FeSO4 and 1 or 2, and the resulting mixtures were analysed by ESI-MS (cone voltage: 50 V or 200 V). Labelled peaks correspond to: A: Unmodified PHD2.Fe. B: Non-covalent adduct PHD2.Fe.2. C: Covalent adduct PHD2.Fe.1/2.\nFig. S6 The α,β-unsaturated amide 3 can covalently modify PHD2. (A) Schematic representation of the adducts formed upon incubation of 3 with PHD2.\nPHD2. PHD2 (20 µM) was incubated (37 °C, 5 min, 1 h or 2 h) with equimolar FeSO4 and 3 or 4 before analysis by ESI-MS (cone voltage: 50 V or 200 V). Labelled peaks correspond to the following assigned complexes: A: unmodified PHD2.Fe; B: the non-covalent PHD2.Fe.3 adduct; C: the covalent PHD2.Fe.3 adduct.\n2. Experimental procedures\n1.1.1 Non-denaturing mass spectrometry1\nApo PHD2 was desalted using a Bio-Spin 6 Column (Bio-Rad, Hemel Hempstead, UK) into 15 mM ammonium acetate (pH 7.5). The stock solution was diluted with the same buffer to a final concentration of 100 μM. FeSO4·7H2O was dissolved in 20 mM HCl at a concentration of 100 mM. This solution was then diluted with MilliQ purified water to give a final working concentration of 100 μM. The protein was mixed with the Fe(II) solution and the inhibitor solution to give final concentrations of 20 μM PHD2, 20 μM Fe(II), and 20 μM inhibitor. The resultant solution was incubated for the appropriate time (specified in the text) at 37 […]\n(5 min or 20 min) at 37 °C. After incubation, the samples were immediately analysed by ESI-MS. Data were acquired using a Q-TOF mass spectrometer (Q-TOF micro, Micromass, Altrincham, UK) interfaced with a Nanomate (Advion Biosciences, Ithaca, NY, USA) with a chip voltage of 1.70 kV and a delivery pressure 0.5 psi (1 psi = […]). The sample cone voltage was typically 200 or 50 V with a source temperature of 40 °C and with an acquisition/scan time of 10s/1s. Sample acquisition was performed in positive ion mode in the range of 2000-4000 m/z. The pressure at the interface between the atmospheric source and the high vacuum region was fixed at 6.30 mbar. External instrument calibration was achieved using sodium iodide."}, "PHD2 K408I": {"biological_target": "T2, PHD2 K408I (Homo sapiens, UniProt Q9GZT9, K408I)", "T2 construct": "PHD2_181–426 (hereafter PHD2); His6 (N, cleaved yes); made in house; host or cells: bacterial culture (2x TY, kanamycin, IPTG); QuikChange mutagenesis", "T2 sequence (Q9GZT9 181-426 K408I)": "as the sequence (Q9GZT9 181-426) above, with K228I counted along it", "test": "Non-denaturing ESI-MS crosslinking, K408I variant", "assay_type": "binding", "conditions": "equimolar FeSO4 and compound, 3 h, 37 °C", "description": "The site of crosslinking was investigated by trypsin digest and LC-MS/MS. The imine adducts formed by 1/2 were fixed by reduction using sodium cyanoborohydride (Fig. S12, ESI ^†). Modified protein samples were digested (trypsin) and analysed by ‘nano LC-MS/MS’.[19] In all 3 samples, modification by the respective inhibitor was identified on the trypsin-derived peptide 403[…]411, and localised to K408 (Fig. 3B and Fig. S13, ESI ^†).\nFig. S11 Non-denaturing ESI-MS data of K408I PHD2 in the presence of equimolar amounts of FeSO4 and the Michael acceptor 3 after 3 hours incubation at 37 °C in ammonium acetate (15 mM, pH 7.5) at a sample cone voltages of (a) 80V or (b) 200V. Non-denaturing ESI-MS data of […] PHD2 in the presence of equimolar amounts of FeSO4 and 3 after 3 hours incubation at 37 °C in ammonium acetate (15 mM, pH 7.5) at a sample cone voltage of (c) 80V or (d) 200V. The peaks observed are consistent with the following complexes: (A): K408I.Fe; (B): non-covalent K408I.Fe.3 complex, (C): covalent K408I.Fe.3 complex; (D): R411M.Fe; (E): covalent R411M.Fe.3 complex."}, "PHD1": {"biological_target": "PHD1 (Homo sapiens, UniProt Q96KS0)", "sequence (Q96KS0 whole entry)": "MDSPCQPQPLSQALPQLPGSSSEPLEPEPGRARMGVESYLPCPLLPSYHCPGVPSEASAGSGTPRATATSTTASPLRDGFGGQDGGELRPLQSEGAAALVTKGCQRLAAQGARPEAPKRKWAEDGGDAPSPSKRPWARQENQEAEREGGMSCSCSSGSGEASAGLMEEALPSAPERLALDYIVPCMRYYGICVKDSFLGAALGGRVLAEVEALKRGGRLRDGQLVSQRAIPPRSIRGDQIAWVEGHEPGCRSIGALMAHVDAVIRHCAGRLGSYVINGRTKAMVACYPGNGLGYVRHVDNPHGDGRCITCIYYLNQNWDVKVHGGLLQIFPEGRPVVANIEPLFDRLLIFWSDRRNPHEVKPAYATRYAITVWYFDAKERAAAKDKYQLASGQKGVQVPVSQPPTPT", "test": "Denaturing MS covalent adduct formation with PHD1", "assay_type": "binding", "conditions": "enzyme 20 μM, Fe(II) 30 μM, compound 30 μM, 37 °C, 4 h"}, "PHD3": {"biological_target": "PHD3 (Homo sapiens, UniProt Q9H6Z9)", "sequence (Q9H6Z9 whole entry)": "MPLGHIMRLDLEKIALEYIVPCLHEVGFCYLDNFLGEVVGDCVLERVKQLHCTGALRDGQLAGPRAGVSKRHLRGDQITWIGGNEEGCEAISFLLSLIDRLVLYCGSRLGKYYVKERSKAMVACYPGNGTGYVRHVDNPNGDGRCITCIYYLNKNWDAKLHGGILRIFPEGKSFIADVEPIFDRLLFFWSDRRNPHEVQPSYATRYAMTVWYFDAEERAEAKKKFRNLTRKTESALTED", "test": "Denaturing MS covalent adduct formation with PHD3", "assay_type": "binding", "conditions": "enzyme 20 μM, Fe(II) 30 μM, compound 30 μM, 37 °C, 4 h"}, "PHD2 (residues 181-426)": {"biological_target": "PHD2 (residues 181-426) (Homo sapiens, UniProt Q9GZT9)", "sequence (Q9GZT9 181-426)": "as the sequence (Q9GZT9 181-426) above", "test": "biochemical"}}, "data": [{"smiles": "C=CC(=O)Nc1cccc(C(=O)NCC(=O)O)c1O", "note": "[compound 3]", "values": [{"measurement": "conversion to the covalent adduct after 1 h", "setting": "PHD2_181–426; 1 h", "value": "1/3"}, {"measurement": "conversion to the covalent adduct after 2 h", "setting": "PHD2_181–426; 2 h", "value": "2/3"}, {"measurement": "apparent covalent modification of PHD2 K408I", "setting": "PHD2 K408I", "value": "< 10", "unit": "%"}, {"measurement": "covalent reaction with PHD1", "setting": "PHD1", "value": "did not covalently react"}, {"measurement": "covalent reaction with PHD3", "setting": "PHD3", "value": "did not covalently react"}, {"measurement": "IC50", "setting": "PHD2 (residues 181-426)", "value": "> 2000", "unit": "µM"}]}]}
